Data set [1] has as its system pre-purified cardiac clusters of murine αPIG-AT25 iPSCs. Put plainly: Cell yield, flow cytometry and morphology of pre-purified miPSC cardiac clusters. It counts as cell-based. How it is done:
(§1) The differentiation of transgenic mPSCs was initiated in mass cultures as briefly described below. One million cells were transferred per non-adhering 10 cm dish with 14 ml differentiation medium composed of Iscove's Modified Dulbecco's Medium (IMDM) with GlutaMAX (Life Technologies) supplemented with 20% FBS, 1×NEAA and 100 μM β-ME. Embryoid bodies (EBs) from day 2 of differentiation were transferred in a 250 ml spinner flask (CELLSPIN 250, Integra Biosciences, Fernwald, Germany) with a density of 3×10^4 EBs per 200 ml of differentiation medium. On the first 2 days of differentiation medium was supplemented with 50 μg/ml L-ascorbic acid phosphate (AA, Wako pure chemicals industry, Japan) in order to promote the development of cardiac cells. For the selection of GFP-expressing CMs, 50 ml of the medium was exchanged with fresh differentiation medium and 8 μg/ml puromycin (Life Technologies) were supplemented on day 9 of differentiation. Two days later, the cardiac clusters were transferred on non-adhering 10 cm dishes with fresh differentiation medium containing 8 μg/ml puromycin. In the further course of differentiation medium was exchanged every 2-3 days. If not otherwise specified, the purification of GFP-positive CMs with puromycin was continued until day 16 of differentiation. For single cell analyses and transfer of PSC-derived CMs on cell culture plates, cardiac clusters were dissociated with 0.25% trypsin-EDTA (Life Technologies) supplemented with 50 U/ml DNase I (AppliChem, Darmstadt, Germany) for 20-30 min at 37° C. The mPSC-derived CMs were filtered through a polyamide membrane with […] pore size (Sefar, Heiden, Switzerland). Cell numbers were determined with a Neubauer hemocytometer and cells were stored on ice until further use.
Aiming at complete elimination of remaining PSCs in PSC-derived cell aggregates, murine cardiac clusters were pre-purified with 2-4 μg/ml puromycin from day 9 until day 14 of differentiation in order to prevent complete removal of PSCs and then treated with SM6 for 2 days to assess its potential for removal of contaminating PSCs in the absence of puromycin. After treatment, cardiac clusters were dissociated with 0.25% trypsin-EDTA supplemented with 50 U/ml of DNase I and the level of PSC contamination was determined using colony formation assay, flow cytometry for SSEA-1 and RT-PCR for Oct4. […] Developing PSC colonies on MEF plates were quantified and visualized with 1% crystal violet (Fluka Analytical, St. Louis, USA) diluted in methanol (Applichem). […]
Cells were measured with an Attune acoustic focusing cytometer (Life Technologies) and data was analyzed with the Attune Cytometric software v1.2.5 (Life Technologies). Marker expression was analyzed in a gated population of 10^4 viable cells. […]

In data set [2] the test system is αPIG-AT25 miPSC-derived cardiomyocytes. Put plainly: Cell viability (PrestoBlue) of miPSC-derived cardiomyocytes. In kind it is cell-based, murine. As to the method:
as §1
Serial dilutions of DMSO stock solutions of PluriSIn #1 (Sigma-Aldrich, catalog number SML0682) or one of small molecules SM1-SM10, were prepared from 20 mM stock solutions with cell culture medium. Murine PSCs were dissociated with 0.05% trypsin-EDTA, seeded on 0.1% gelatin-coated 96-well plates with a density of 5000 cells/well and cultured in maintenance medium supplemented with 1000 U/ml of mLIF. After 1 day, cells were incubated with 40 μM PluriSIn #1 and derivatives for 72 h or with 0.01-25 μM SMs for 48 h, respectively. For treatment of corresponding PSC-derived CMs with SMs, puromycin-selected miPSC-CMs from day 14 of differentiation were dissociated with 0.25% trypsin-EDTA as described above and plated on 96-well plates (5×10^4 cells/well) which were pre-coated with 5 μg/ml fibronectin (PromoCell, Heidelberg, Germany). After culturing miPSC-CMs with 8 μg/ml puromycin for 2 more days, they were incubated in differentiation medium supplemented with 0.1-100 μM of SMs for 48-72 h. Following small molecule treatment, cell viability was determined with PrestoBlue cell viability reagent (Life Technologies). To this end, cells were washed with PBS (with calcium and magnesium, Life Technologies) and incubated with PrestoBlue reagent diluted in cell culture medium for 40 min at 37° C.
Fluorescence intensities correlating with the number of viable cells in the wells were measured in black flat-bottom 96-well plates (Greiner Bio-One, Kremsmünster, Austria) with a GeniosPro microplate reader (Tecan, Männedorf, Schweiz).
The selectivity of compounds was investigated by comparing their cytotoxicity against undifferentiated iPSCs and iPSC-derived CMs. Murine iPSCs αPIG-AT25 were incubated for 48 h with compounds SM1, SM2, SM4, SM5, SM6 and SM8 in concentrations of 0.01 to 10 μM. Cell culture and cardiac differentiation were performed as described above. Experiments were run at least in quadruplicate. The cell viability was determined using PrestoBlue cell viability reagent.
The viability of salicylic diamine-treated CMs was confirmed by 72 h of exposure to concentrations of 0.01 μM, 0.1 μM, 1 μM, 10 μM and 25 μM of compounds SM1, SM2, SM4, SM5, SM6 and SM8.

The subject of data set [3] is colony forming PSCs in pre-purified cardiac clusters of murine ESC line αPIG44-D3. Put plainly: Colony formation assay after treatment of pre-purified mESC cardiac clusters. The note with it: 48 h. In kind it is cell-based. How it is done:
Aiming at complete elimination of remaining PSCs in PSC-derived cell aggregates, murine cardiac clusters were pre-purified with 2-4 μg/ml puromycin from day 9 until day 14 of differentiation in order to prevent complete removal of PSCs and then treated with SM6 for 2 days to assess its potential for removal of contaminating PSCs in the absence of puromycin. After treatment, cardiac clusters were dissociated with 0.25% trypsin-EDTA supplemented with 50 U/ml of DNase I and the level of PSC contamination was determined using colony formation assay, flow cytometry for SSEA-1 and RT-PCR for Oct4. In colony formation assays 2×10^5 cells were plated on a 6 cm cell culture dish containing MEF and cultured in maintenance medium supplemented with 1000 U/ml of mLIF for 7-10 days. Developing PSC colonies on MEF plates were quantified and visualized with 1% crystal violet (Fluka Analytical, St. Louis, USA) diluted in methanol (Applichem).
To confirm the PSC-eliminating effect of the compound SM6, pre-purified cardiac clusters derived from transgenic murine ESC line αPIG44-D3 were also treated with SM6. The cells were differentiated in spinner flasks and incubated for 48 h with compound SM6 as described above with the exception that pre-purification was performed with 4 μg/ml of puromycin between day 9 and day 14, as schematically illustrated in FIG. 7a).

For `Oc1ccccc1CN[C@@H]1CCCC[C@H]1NCc1ccccc1O` [SM6, (1R,2R)-N,N′-di(2-hydroxybenzyl)-1,2-diaminocyclohexane], the “morphology and contractility of cardiac clusters” value in data set [1] (1 μM, 5 μM and 10 μM, 48 hours) is given as “not compromised”. Moreover, the “fraction of GFP−/cTnT− non-CMs” value in data set [1] (10 μM, flow cytometry) is 7%. The “fraction of GFP+/cTnT+ CMs of the viable cell population” value in data set [1] (increasing concentrations of SM6, flow cytometry) is “up to 74%”. For the same compound, in data set [2] (10 μM, two day-treatment), the “effect on the viability of cardiomyocytes” value is “no significant effect”. In addition, in data set [2] (summary in description), the “toxicity to differentiated cardiomyocytes” value is reported as “not toxic”. The “reduction of the number of ESC-derived colonies compared to DMSO control” value in data set [3] (1 μM) turned out to be 20.03±26.95%; in data set [3] (5 μM), 93.75±3.45%; in data set [3] (10 μM) it was 96.23±0.75%.
Turning to `Oc1c(CNC2CCCC[C@@H]2NCc2cccc(-c3ccccc3)c2O)cccc1-c1ccccc1` (stereo partly drawn) [SM8, (1S,2R)-N,N′-di[(2-hydroxy-3-phenyl)-benzyl]-1,2-diaminocyclohexane], the “decrease of cardiomyocyte viability, in average over SM1, SM4 and SM8” value in data set [2] (10 μM, 72 h of exposure) was 79.79±14.72%.
Regarding `COc1ccc(C[C@H](N)C(=O)N[C@H]2[C@@H](O)[C@H](n3cnc4c(N(C)C)ncnc43)O[C@@H]2CO)cc1` [puromycin, reference compound], the “reduction of total cell yield compared to DMSO-treated control” value in data set [1] (puromycin 8 μg/ml) is 20.55±14.43%. Further, the “reduction of the number of ESC-derived colonies compared to DMSO control” value in data set [3] (puromycin 8 μg/ml) came to 47.83±24.89%.

Values taken from patent publication US11299453B2 (Universität zu Köln, priority 2017, dated 2022).
